Laboratory results taken from patent US10858352B2, “Pharmaceutical compounds” (Heptares Therapeutics Limited, priority 2018, dated 2020).
Like-named read-outs stand apart in the source and are kept apart here.

Tests used:
[1] = target: T1, human muscarinic M1 receptor (Homo sapiens, UniProt P11229); assay: Alphascreen Surefire phospho-ERK1/2 functional assay, M1; type: cell-based; settings: for EC50 / pEC50 M1: agonist 5 min, 37° C.; for Emax: CHO, read-out: % Emax cf. ACh (M1), CHO cells stably expressing human M1; for Emax / % Emax cf. ACh (M1): Emax relative to ACh
T1 sequence (P11229 1-460): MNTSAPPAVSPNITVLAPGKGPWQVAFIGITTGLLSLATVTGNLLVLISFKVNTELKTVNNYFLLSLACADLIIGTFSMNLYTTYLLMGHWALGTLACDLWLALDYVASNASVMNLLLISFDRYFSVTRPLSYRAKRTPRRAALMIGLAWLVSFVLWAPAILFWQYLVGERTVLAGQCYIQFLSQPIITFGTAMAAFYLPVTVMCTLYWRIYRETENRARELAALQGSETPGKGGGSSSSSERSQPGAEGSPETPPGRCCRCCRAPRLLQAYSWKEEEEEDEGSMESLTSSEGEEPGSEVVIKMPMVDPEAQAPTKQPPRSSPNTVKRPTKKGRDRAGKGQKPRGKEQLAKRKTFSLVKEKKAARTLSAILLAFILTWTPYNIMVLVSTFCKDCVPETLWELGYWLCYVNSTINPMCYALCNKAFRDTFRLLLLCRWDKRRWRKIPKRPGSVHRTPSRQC
Experimental: (§1) ERK1/2 phosphorylation is a downstream consequence of both Gq/11 and Gi/o protein coupled receptor activation, making it highly suitable for the assessment of M1, M3 (Gq/11 coupled) and M2, M4 receptors (Gi/o coupled), rather than using different assay formats for different receptor subtypes. CHO cells stably expressing the human muscarinic M1, M2, M3 or M4 receptor were plated (25K/well) onto 96-well tissue culture plates in MEM-alpha+10% dialysed FBS. Once adhered, cells were serum-starved overnight. Agonist stimulation was performed by the addition of 5 μL agonist to the cells for 5 min (37° C.). Media was removed and 50 μL of lysis buffer added. After 15 min, a 4 μL sample was transferred to 384-well plate and 7 μL of detection mixture added. […]

[2] = target: T2, human muscarinic M4 receptor (Homo sapiens, UniProt P08173); assay: Alphascreen Surefire phospho-ERK1/2 functional assay, M4; type: cell-based; settings: for EC50 / % Emax cf. ACh (M4) / pEC50 M4: CHO cells stably expressing human M4; for EC50 / pEC50 M4: agonist 5 min, 37° C.; for EC50: read-out: pEC50 M4 (converted); for Emax: CHO, read-out: % Emax cf. ACh (M4), CHO cells stably expressing human M4; for Emax / % Emax cf. ACh (M4): Emax relative to ACh
T2 construct: expressed in transfected cells
T2 sequence (P08173 1-479): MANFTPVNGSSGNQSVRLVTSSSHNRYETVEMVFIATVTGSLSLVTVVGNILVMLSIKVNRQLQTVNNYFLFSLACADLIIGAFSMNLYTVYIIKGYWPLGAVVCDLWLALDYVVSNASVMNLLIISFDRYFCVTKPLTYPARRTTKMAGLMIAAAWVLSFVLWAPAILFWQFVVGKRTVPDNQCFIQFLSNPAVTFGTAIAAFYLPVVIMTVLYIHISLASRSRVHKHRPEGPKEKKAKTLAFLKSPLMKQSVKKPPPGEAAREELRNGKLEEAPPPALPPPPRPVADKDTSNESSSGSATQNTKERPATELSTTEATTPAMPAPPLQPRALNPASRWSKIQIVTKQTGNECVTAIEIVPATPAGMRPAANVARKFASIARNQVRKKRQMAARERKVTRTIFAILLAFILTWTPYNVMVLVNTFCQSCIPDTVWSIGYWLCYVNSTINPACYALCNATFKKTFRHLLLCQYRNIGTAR
Experimental: as §1

[3] = CHO cells stably expressing human M1, read-out: pEC50 M1 (converted)
[4] = CHO cells stably expressing human M1
[5] = pEC50 M1, CHO cells stably expressing human M1

Compound | EC50 [1, 3] | Emax [1] | EC50 [2] | Emax [2] | % Emax cf. ACh (M1) [1, 4] | pEC50 M1 [1, 4] | % Emax cf. ACh (M4) [2] | pEC50 M4 [2] | EC50 [1, 5]
Cc1noc(N2C3CCCC2CC(N2CCC(C(=O)NC4(C)CCC4)CC2)C3)n1 (single isomer, unassigned) [8-4 Isomer 1] | 575 nM | 98% | 646 nM | 76% |  |  |  |  | 
Cc1noc(N2CCCC(N3CCC(N4CCCC4c4cnn(C)c4)CC3)CC2)n1 (single isomer, unassigned) [10-10 Isomer 2b] |  |  | 316 nM |  | (14) % | <4.70 | (72) % |  | 
Cc1noc(N2C3CCC2CC(N2CCC4(CC2)CNC(=O)C4)C3)n1 (single isomer, unassigned) [6-2 Isomer 1] |  |  | > 20000 nM |  | (34) % |  | (9) % |  | 158 nM
Cc1noc(N2C3CCC2CC(N2CCC(C(=O)NC4(C(F)(F)F)CCC4)CC2)C3)n1 (single isomer, unassigned) [12-7 Isomer 2] | 537 nM | 109% | 2000 nM | 109% |  |  |  |  | 
Cc1noc(N2CCC(N3CCC(n4cccn4)CC3)CC2)n1 [Example 4-1, 1′-(3-Methyl-1,2,4-oxadiazol-5-yl)-4-(1H-pyrazol-1-yl)-1,4′-bipiperidine] | ≥ 20000 nM | 50% | 1000 nM | 85% |  |  |  |  | 
Cc1noc(N2CCCC(N3CCC(N4CCCC4c4cnn(C)c4)CC3)CC2)n1 (single isomer, unassigned) [10-10 Isomer 1b] | > 20000 nM |  | 513 nM | 56% | (6) % |  |  |  | 
Cc1noc(N2C3CCC2CC(N2CCC(C(=O)NCC4(C)CCC4)CC2)C3)n1 (single isomer, unassigned) [12-12 Isomer 2] |  | 80% | 209 nM | 107% |  |  |  |  | 3.72 nM
CCN(C)C(=O)[C@H]1[C@@H]2CN(C3CC4CCC(C3)N4c3nc(C)no3)C[C@@H]21 (single isomer, unassigned; isomer 1) [12-24 Isomer 1] |  |  |  |  | (74) % | 6.08 | (16) % | <4.70 | 
Cc1noc(N2C3CCC2CC(N2CCC4(CC2)CNC(=O)C4)C3)n1 (single isomer, unassigned) [6-2 Isomer 2] |  |  | 170 nM |  | (81) % |  | (39) % |  | 63.1 nM
CC1(NC(=O)C2CCN(C3CC4CCC(C3)N4c3nc(C(F)(F)F)no3)CC2)CCC1 (single isomer, unassigned) [12-14 Isomer 1] |  |  | > 20000 nM |  | (47) % |  | (6) % |  | 912 nM
Cc1noc(N2C3CCC2CC(N2CCC4(CC2)CNC(=O)O4)C3)n1 (single isomer, unassigned) [6-4 Isomer 1] | 240 nM |  | > 20000 nM |  | (49) % |  | (15) % |  | 
CCOC(=O)[C@H]1[C@@H]2CN(C3CC4(CCN(c5nc(C)no5)C4)C3)C[C@@H]21 (single isomer, unassigned) [2-3 Isomer 2] | > 20000 nM | 9% | 513 nM | 32% |  |  |  |  | 
Cc1noc(N2CC3CC(N4CCC(n5cccn5)CC4)CC2C3)n1 (single isomer, unassigned) [11-1 Isomer 2] | 3160 nM | 48% | 1050 nM | 69% |  |  |  |  | 
Cc1noc(N2C3CCC2CC(N2CCC(C(=O)NC4(C)CCCC4)CC2)C3)n1 (single isomer, unassigned) [12-11 Isomer 2] | 661 nM | 103% | 2690 nM | 83% |  |  |  |  | 
Cc1noc(N2CC3CCC2CC3N2CCC3(CC2)CNC(=O)C3)n1 (single isomer, unassigned) [12-1 Isomer 1] | 603 nM |  | > 20000 nM |  | (58) % |  | (5) % |  | 
Cc1noc(N2CCCC(N3CCC(N4C[C@H](F)C[C@@H]4CO)CC3)CC2)n1 (single isomer, unassigned) [10-7 Isomer 2] | 4270 nM |  | 398 nM |  | (70) % |  | (76) % |  | 
Cc1noc(N2CC3(CC(N4CCC(n5cccn5)CC4)C3)C2)n1 [Example 1-1, 2-(3-Methyl-1,2,4-oxadiazol-5-yl)-6-[4-(1H-pyrazol-1-yl)piperidin-1-yl]-2-azaspiro[3.3]heptane] | 10200 nM | 48% | 513 nM | 77% |  |  |  |  | 
Cc1noc(N2CC3CC(C2)C3N2CCC(n3cccn3)CC2)n1 (single isomer, unassigned) [5-1 Isomer 1] | > 20000 nM | 9% | 1260 nM | 55% |  |  |  |  | 
Cc1noc(N2C3CCC2CC(N2C[C@@H]4[C@H](C2)[C@H]4C(=O)NC2(C)CCC2)C3)n1 (single isomer, unassigned; isomer 2) [12-13 Isomer 2] |  |  |  |  | (102) % | 6.48 | (69) % | 6.09 | 

The next lines start with results.

EC50 [1, 3] | Emax [1] | EC50 [2] | Emax [2] | % Emax cf. ACh (M1) [1, 4] | pEC50 M1 [1, 4] | % Emax cf. ACh (M4) [2] | pEC50 M4 [2] | Compound | EC50 [1, 5]
3980 nM | 56% | 219 nM | 101% |  |  |  |  | CCN(C(C)=O)C1CCN(C2CCCN(c3nc(C)no3)CC2)CC1 (racemic) [10-11 Racemic mixture] | 
372 nM | 97% | > 20000 nM | 10% |  |  |  |  | Cc1noc(N2CCCC(N3CCC4(CC3)CNC(=O)O4)CC2)n1 (racemic) [10-3 Racemic mixture] | 
 |  | 55 nM |  | (24) % | <4.70 | (119) % |  | CNC(=O)N1CCC[C@H]1C1CCN(C2CCCN(c3nc(C)no3)CC2)CC1 (single isomer, unassigned) [10-12 Isomer 2] | 
> 20000 nM |  | 871 nM |  | (18) % |  | (36) % |  | CCC1NC(=O)OC12CCN(C1CCCN(c3nc(C)no3)CC1)CC2 (single isomer, unassigned) [10-4 Isomer 4] | 
6610 nM |  | 525 nM |  | (43) % |  | (72) % |  | Cc1noc(N2CCCC(N3CCC(n4cccn4)CC3)CC2)n1 (single isomer, unassigned) [10-1 Isomer 2] | 
676 nM | 37% | 93.3 nM | 91% |  |  |  |  | Cc1noc(N2CCCC(N3CCC(N4CC(F)(F)C[C@@H]4CO)CC3)CC2)n1 (single isomer, unassigned) [10-8 Isomer 1] | 
9330 nM |  | 2190 nM |  | (81) % |  | (71) % |  | CCC1NC(=O)OC12CCN(C1CCCN(c3nc(C)no3)CC1)CC2 (single isomer, unassigned) [10-4 Isomer 3] | 
> 20000 nM | 21% | 219 nM | 33% |  |  |  |  | Cc1noc(N2CCCC(N3CCC4(CC3)OC(=O)NC4(C)C)CC2)n1 (single isomer, unassigned) [10-5 Isomer 1] | 
> 20000 nM | 22% | 309 nM | 100% |  |  |  |  | CNC(=O)N1CCC[C@H]1C1CCN(C2CCCN(c3nc(C)no3)CC2)CC1 (single isomer, unassigned) [10-12 Isomer 1] | 
1550 nM |  | 295 nM |  | (35) % |  | (73) % |  | Cc1noc(N2CCCC(N3CCC(N4CC(F)(F)C[C@@H]4CO)CC3)CC2)n1 (single isomer, unassigned) [10-8 Isomer 2] | 
1320 nM | 53% | 479 nM | 56% |  |  |  |  | CC[C@H]1CCC(=O)N1C1CCN(C2CCCN(c3nc(C)no3)CC2)CC1 (single isomer, unassigned) [10-9 Isomer 2] | 
